{"source": "paper PMC11212559", "about": "(Emerging Microbes & Infections, 2024)", "target": "E1CTD (Monkeypox virus Zaire-96-I-16, UniProt Q8V4Y7)", "data": [{"smiles": "C[S+](CC[C@H](N)C(=O)O)C[C@H]1O[C@@H](n2cnc3c(N)ncnc32)[C@H](O)[C@@H]1O", "note": "(stereo partly shown) [SAM]", "values": [{"measurement": "no detectable binding ability", "value": "the E1CTD also shows no detectable binding ability to SAM"}]}]}
